Source: patent US20240158370A1, “CK1 alpha AND DUAL CK1 alpha / GSPT1 DEGRADING COMPOUNDS” (Innovo Therapeutics, Inc., priority 2022, published 2024)

What was measured:
Type in all cases: cell-based
CK1α = target: T1, CK1α (Homo sapiens, UniProt P48729+Q96SW2); assay: HiBiT degradation assay, CK1α, Procedure A; conditions: six hours
T1 construct: CSNK1A1-HiBit KI HEK293(LgBit) Cells; host or cells: HEK293(LgBit) knock-in cells
Summary of the method: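 Luminescence from HiBiT lytic detection, read after 20 min shaking, gave DC50 and Ymin by 4-parameter fit. Before that, cells (1×10^6 cells/ml, DMEM+10% FBS) sat 6 h at 37° C on 10-point compound series (10 μM–0.005 μM, 0.1% DMSO).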

GSPT1 = GSPT1 (Homo sapiens, UniProt P15170+Q96SW2); assay: HiBiT degradation assay, GSPT1, Procedure B (Molt 4_hGSPT1_HiBIT cells); design: Molt 4_hGSPT1_HiBIT N-terminus tagged cells were generated using CRISPR technology; endogenous in cells; host or cells: Molt 4 cells, CRISPR-edited; conditions: six hours
Summary of the method: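 CRISPR N-terminal HiBiT-tagged Molt 4 cells at 1×10^6 cells/ml were treated 6 h at 37° C with compounds (10-point, 10 μM to 0.005 μM, 0.1% DMSO). Remaining HiBiT-GSPT1 was read by lytic luminescence; DC50 and Ymin (% remaining) from a 4-parameter fit.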

Z-138 cells = assay: Z-138 Proliferation Assay (Cell Titer-Glo); conditions: 72 hours; for Ymin (%): % remaining (percent of DMSO control); for EC50: Homo sapiens, Cell Titer-Glo, 4-parameter curve fit
Summary of the method: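 Z-138 cells (4,000 cells/well, IMDM + 10% FBS) exposed 72 h to 10-point 1:2 compound dilutions from 10,000 nM top, 0.1% DMSO. Viability read by CellTiter-Glo luminescence; EC50 from 4-parameter fit of percent of DMSO control.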

GSPT1, sequence (P15170 whole entry): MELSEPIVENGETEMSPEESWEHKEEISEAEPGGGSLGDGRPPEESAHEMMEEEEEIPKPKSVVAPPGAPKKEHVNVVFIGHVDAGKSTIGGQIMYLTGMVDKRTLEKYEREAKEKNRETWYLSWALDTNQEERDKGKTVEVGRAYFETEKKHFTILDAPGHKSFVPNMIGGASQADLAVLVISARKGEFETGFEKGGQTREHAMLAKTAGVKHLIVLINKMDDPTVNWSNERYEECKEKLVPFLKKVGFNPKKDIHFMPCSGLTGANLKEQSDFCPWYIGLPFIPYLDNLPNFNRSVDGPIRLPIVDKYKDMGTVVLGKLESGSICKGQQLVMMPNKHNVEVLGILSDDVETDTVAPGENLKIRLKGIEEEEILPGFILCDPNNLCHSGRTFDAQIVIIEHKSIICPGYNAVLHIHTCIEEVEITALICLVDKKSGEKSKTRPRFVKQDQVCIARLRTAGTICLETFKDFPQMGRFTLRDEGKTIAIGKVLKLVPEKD
GSPT1, sequence (Q96SW2 whole entry): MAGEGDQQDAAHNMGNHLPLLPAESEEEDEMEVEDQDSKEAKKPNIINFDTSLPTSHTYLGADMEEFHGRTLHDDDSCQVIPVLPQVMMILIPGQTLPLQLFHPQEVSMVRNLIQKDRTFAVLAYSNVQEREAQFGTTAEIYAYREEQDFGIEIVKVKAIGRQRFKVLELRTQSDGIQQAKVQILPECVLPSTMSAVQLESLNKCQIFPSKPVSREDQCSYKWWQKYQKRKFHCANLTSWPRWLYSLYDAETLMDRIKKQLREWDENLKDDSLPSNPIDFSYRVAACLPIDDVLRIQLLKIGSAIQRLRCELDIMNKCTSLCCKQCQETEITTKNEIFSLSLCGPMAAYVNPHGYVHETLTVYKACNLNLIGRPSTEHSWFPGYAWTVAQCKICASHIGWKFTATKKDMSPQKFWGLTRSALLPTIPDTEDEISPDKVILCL
GSPT1, sequence (Q16531 whole entry partner): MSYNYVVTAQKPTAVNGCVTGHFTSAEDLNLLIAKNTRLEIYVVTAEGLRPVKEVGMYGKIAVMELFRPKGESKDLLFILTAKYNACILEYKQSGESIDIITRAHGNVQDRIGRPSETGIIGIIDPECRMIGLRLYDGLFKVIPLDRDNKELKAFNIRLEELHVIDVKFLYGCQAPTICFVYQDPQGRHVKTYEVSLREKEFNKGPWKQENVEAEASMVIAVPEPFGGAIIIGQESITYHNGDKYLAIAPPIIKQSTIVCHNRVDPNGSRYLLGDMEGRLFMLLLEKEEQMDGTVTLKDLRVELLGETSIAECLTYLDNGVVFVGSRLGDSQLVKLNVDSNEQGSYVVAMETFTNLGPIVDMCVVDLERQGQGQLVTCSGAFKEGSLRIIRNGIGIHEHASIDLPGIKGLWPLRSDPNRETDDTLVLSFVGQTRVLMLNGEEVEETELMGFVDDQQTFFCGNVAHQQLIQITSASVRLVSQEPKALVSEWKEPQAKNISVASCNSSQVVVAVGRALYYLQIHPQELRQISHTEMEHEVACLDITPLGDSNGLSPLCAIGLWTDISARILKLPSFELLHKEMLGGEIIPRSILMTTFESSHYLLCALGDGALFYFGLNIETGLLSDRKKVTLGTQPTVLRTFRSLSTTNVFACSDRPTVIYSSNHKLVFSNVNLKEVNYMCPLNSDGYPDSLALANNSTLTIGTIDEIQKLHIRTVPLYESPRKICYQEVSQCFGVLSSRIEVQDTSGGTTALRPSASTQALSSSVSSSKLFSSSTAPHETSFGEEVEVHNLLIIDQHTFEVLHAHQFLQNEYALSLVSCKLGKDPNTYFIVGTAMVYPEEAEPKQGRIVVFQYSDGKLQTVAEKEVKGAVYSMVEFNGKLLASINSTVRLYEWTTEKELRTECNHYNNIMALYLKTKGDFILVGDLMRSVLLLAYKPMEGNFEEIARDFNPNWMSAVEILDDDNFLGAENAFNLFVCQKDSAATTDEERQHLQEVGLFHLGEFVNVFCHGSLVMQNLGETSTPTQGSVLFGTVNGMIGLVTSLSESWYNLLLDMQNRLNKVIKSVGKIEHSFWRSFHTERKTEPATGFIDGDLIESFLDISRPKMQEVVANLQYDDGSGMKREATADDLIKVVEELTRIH
T1 sequence (P48729 whole entry): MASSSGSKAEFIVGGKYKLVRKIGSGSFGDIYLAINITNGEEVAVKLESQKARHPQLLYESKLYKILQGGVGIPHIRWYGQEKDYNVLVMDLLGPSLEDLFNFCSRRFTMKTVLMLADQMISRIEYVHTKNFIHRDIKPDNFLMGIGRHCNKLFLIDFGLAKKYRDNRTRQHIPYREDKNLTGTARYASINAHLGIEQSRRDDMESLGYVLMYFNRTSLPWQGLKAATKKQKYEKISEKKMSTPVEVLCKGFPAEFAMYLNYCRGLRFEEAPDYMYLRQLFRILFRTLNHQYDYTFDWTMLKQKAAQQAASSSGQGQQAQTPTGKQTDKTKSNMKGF
T1 sequence (Q96SW2 whole entry): as the sequence (Q96SW2 whole entry) above
T1 sequence (Q16531 whole entry partner): as the sequence (Q16531 whole entry partner) above

CK1α Ymin (CK1α) | DC50 (CK1α) | DC50 (GSPT1) | GSPT1 Ymin (GSPT1) | SMILES | Ymin (%) (Z-138 cells) | EC50 (Z-138 cells)
C (C = 0-10% remaining) | < 25 nM | ≥ 25 nM | F (F = >75-100% remaining) | CC(C)c1nc(-c2ccc3c(c2)CN(C2CCC(=O)NC2=O)C3=O)c(-c2ccccc2)n1C (stereo not drawn) [Example 726, 3-(5-(2-isopropyl-1-methyl-5-phenyl-1H-imidazol-4-yl)-1-oxoisoindolin-2-yl)piperidine-2,6-dione] | D (0-10% remaining) | < 10 nM
C (C = 0-10% remaining) | < 25 nM | < 25 nM | E (E = >25-75% remaining) | CC(C)c1cn(-c2ccccc2)c(-c2ccc3c(c2)CN(C2CCC(=O)NC2=O)C3=O)n1 (stereo not drawn) [Example 731, 3-(5-(4-isopropyl-1-phenyl-1H-imidazol-2-yl)-1-oxoisoindolin-2-yl)piperidine-2,6-dione] | D (0-10% remaining) | < 10 nM
C (C = 0-10% remaining) | < 25 nM | < 25 nM | F (F = >75-100% remaining) | CC(C)Cc1nc(-c2ccc3c(c2)CN(C2CCC(=O)NC2=O)C3=O)c(-c2ccccc2)o1 (stereo not drawn) [Example 732, 3-(5-(2-isobutyl-5-phenyloxazol-4-yl)-1-oxoisoindolin-2-yl)piperidine-2,6-dione] | D (0-10% remaining) | < 10 nM
C (C = 0-10% remaining) | < 25 nM | ≥ 25 nM | F (F = >75-100% remaining) | CC(C)c1nc(-c2ccc3c(c2)CN(C2CCC(=O)NC2=O)C3=O)c(-c2ccccc2)o1 (stereo not drawn) [Example 733, 3-(5-(2-isopropyl-5-phenyloxazol-4-yl)-1-oxoisoindolin-2-yl)piperidine-2,6-dione] | D (0-10% remaining) | < 10 nM

More lines, now with the values behind:

SMILES | CK1α Ymin (CK1α) | DC50 (CK1α) | DC50 (GSPT1) | GSPT1 Ymin (GSPT1) | Ymin (%) (Z-138 cells) | EC50 (Z-138 cells)
Cn1nc(-c2ccc3c(c2)CN(C2CCC(=O)NC2=O)C3=O)nc1-c1ccc(Cl)cc1 (stereo not drawn) [Example 622, 3-(5-(5-(4-chlorophenyl)-1-methyl-1H-1,2,4-triazol-3-yl)-1-oxoisoindolin-2-yl)piperidine-2,6-dione] | D (D = >10- 25% remaining) | < 25 nM | ≥ 25 nM | E (E = >25-75% remaining) | E (>10-25% remaining) | 10 to 100 nM
Cn1ncc(-c2ccc3c(c2)CN(C2CCC(=O)NC2=O)C3=O)c1C1CCCC1 (stereo not drawn) [Example 692] | E (E = >25-75% remaining) | ≥ 25 nM | ≥ 25 nM | F (F = >75-100% remaining) | E (>10-25% remaining) | 100 to 500 nM
O=C1CCC(N2Cc3cc(-c4cc(-c5ccccc5)n(CC(F)(F)F)n4)ccc3C2=O)C(=O)N1 (stereo not drawn) [Example 710, 3-(1-oxo-5-(5-phenyl-1-(2,2,2-trifluoroethyl)-1H-pyrazol-3-yl)isoindolin-2-yl)piperidine-2,6-dione] | C (C = 0-10% remaining) | < 25 nM | < 25 nM | F (F = >75-100% remaining) | E (>10-25% remaining) | < 10 nM
Cn1nc(-c2ccc3c(c2)CN(C2CCC(=O)NC2=O)C3=O)cc1-c1ccc(Cl)cc1 (stereo not drawn) [Example 717, 3-(5-(5-(4-chlorophenyl)-1-methyl-1H-pyrazol-3-yl)-1-oxoisoindolin-2-yl)piperidine-2,6-dione] | D (D = >10- 25% remaining) | < 25 nM | ≥ 25 nM | F (F = >75-100% remaining) | E (>10-25% remaining) | 10 to 100 nM
CC(C)c1nc(-c2ccc3c(c2)CN(C2CCC(=O)NC2=O)C3=O)cn1-c1ccccc1 (stereo not drawn) [Example 728, 3-(5-(2-isopropyl-1-phenyl-1H-imidazol-4-yl)-1-oxoisoindolin-2-yl)piperidine-2,6-dione] | C (C = 0-10% remaining) | < 25 nM | ≥ 25 nM | F (F = >75-100% remaining) | E (>10-25% remaining) | < 10 nM
Cc1cn(-c2ccccc2)c(-c2ccc3c(c2)CN(C2CCC(=O)NC2=O)C3=O)n1 (stereo not drawn) [Example 729, 3-(5-(4-methyl-1-phenyl-1H-imidazol-2-yl)-1-oxoisoindolin-2-yl)piperidine-2,6-dione] | C (C = 0-10% remaining) | < 25 nM | < 25 nM | E (E = >25-75% remaining) | D (0-10% remaining) | < 10 nM
CCc1cn(-c2ccccc2)c(-c2ccc3c(c2)CN(C2CCC(=O)NC2=O)C3=O)n1 (stereo not drawn) [Example 730, 3-(5-(4-ethyl-1-phenyl-1H-imidazol-2-yl)-1-oxoisoindolin-2-yl)piperidine-2,6-dione] | C (C = 0-10% remaining) | < 25 nM | < 25 nM | E (E = >25-75% remaining) | D (0-10% remaining) | < 10 nM
